Assay results reported in US20230150995A1, “HETEROARYL-METHYL SUBSTITUTED TRIAZOLES” (Hoffmann-La Roche Inc., priority 2020, published 2023).

Target: T1, human V1a receptor (Homo sapiens, UniProt P37288)
T1 construct: expressed in transfected cells; host or cells: HEK293 cells, transiently transfected; cell membranes
Test: human V1a receptor binding study (3H-Vasopressin SPA, HEK293 membranes)
Details: membranes of HEK293 cells transiently transfected with human V1a receptor, Ki by Cheng-Prusoff, read-out: pKi (hV1a) (converted)
Experimental: The human V1a receptor was cloned by RT-PCR from total human liver RNA. The coding sequence was subcloned in an expression vector after sequencing to confirm the identity of the amplified sequence. […] Cell membranes were prepared from HEK293 cells transiently transfected with the expression vector and grown in 20 liter fermenters with the following protocol.
50 g of cells are re-suspended in 30 ml freshly prepared ice cold Lysis buffer (50 mM HEPES, 1 mM EDTA, 10 mM MgCl2 adjusted to pH=7.4+complete cocktail of protease inhibitor (Roche Diagnostics)). Homogenized with Polytron for 1 min and sonicated on ice for 2× 2 minutes at 80% intensity (Vibracell sonicator). The preparation is centrifuged 20 min at 500 g at 4° C., the pellet is discarded and the supernatant centrifuged 1 hour at 43′000 g at 4° C. (19′000 rpm). The pellet is re-suspended in 12.5 ml Lysis buffer+12.5 ml Sucrose 20% and homogenized using a Polytron for 1-2 min. The protein concentration is determined by the Bradford method and aliquots are stored at −80° C. until use. For binding studies 60 mg Yttrium silicate SPA beads (Amersham) are mixed with an aliquot of membrane in binding buffer (50 mM Tris, 120 mM NaCl, 5 mM KCl, 2 mM CaCl2, 10 mM MgCl2) for 15 minutes with mixing. 50 μl of bead/membrane mixture is then added to each well of a 96 well plate, followed by 50 μl of 4 nM 3H-Vasopressin (American Radiolabeled Chemicals). For total binding measurement 100 μl of binding buffer are added to the respective wells, for non-specific binding 100 μl of […] cold vasopressin and for compound testing 100 μl of a serial dilution of each compound in 2% DMSO. The plate is incubated 1 h at room temperature, centrifuged […] at 1000 g and counted on a Packard Top-Count. Non-specific binding counts are subtracted from each well and data is normalized to the maximum specific binding set at 100%. To calculate an IC 50 the curve is fitted using a non-linear regression model (XLfit) and the Ki is calculated using the Cheng-Prussoff equation.

T1 sequence (P37288 whole entry): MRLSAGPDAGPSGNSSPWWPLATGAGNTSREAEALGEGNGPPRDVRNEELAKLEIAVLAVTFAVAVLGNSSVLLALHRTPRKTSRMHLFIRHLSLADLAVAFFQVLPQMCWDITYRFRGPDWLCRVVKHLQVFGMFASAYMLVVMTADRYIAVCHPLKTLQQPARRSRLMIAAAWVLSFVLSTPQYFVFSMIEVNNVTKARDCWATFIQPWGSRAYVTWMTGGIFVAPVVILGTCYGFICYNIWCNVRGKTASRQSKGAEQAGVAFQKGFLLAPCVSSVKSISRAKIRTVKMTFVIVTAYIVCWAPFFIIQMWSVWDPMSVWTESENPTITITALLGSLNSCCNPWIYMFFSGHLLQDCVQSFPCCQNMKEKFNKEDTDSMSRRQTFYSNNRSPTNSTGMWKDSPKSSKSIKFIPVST

Structure (SMILES): Cc1cc(Cc2nnc([C@H]3CC[C@H](Oc4ccccn4)CC3)n2-c2ccc(Cl)cc2)no1 [Example 1, trans-3-[[4-(4-Chlorophenyl)-5-(4-pyridin-2-yloxycyclohexyl)-1,2,4-triazol-3-yl]methyl]-5-methyl-1,2-oxazole]
- Ki: 0.17 nM

Structure (SMILES): Clc1ccc(-n2c(Cc3ccon3)nnc2[C@H]2CC[C@H](Oc3ccccn3)CC2)cc1 [Example 2, trans-3-[[4-(4-Chlorophenyl)-5-(4-pyridin-2-yloxycyclohexyl)-1,2,4-triazol-3-yl]methyl]-1,2-oxazole]
- Ki: 0.229 nM

Structure (SMILES): Clc1ccc(-n2c(Cc3ccno3)nnc2[C@H]2CC[C@H](Oc3ccccn3)CC2)cc1 [Example 3, trans-5-[[4-(4-Chlorophenyl)-5-(4-pyridin-2-yloxycyclohexyl)-1,2,4-triazol-3-yl]methyl]-1,2-oxazole]
- Ki: 0.229 nM

Structure (SMILES): Clc1ccc(-n2c(Cn3cccn3)nnc2[C@H]2CC[C@H](Oc3ccccn3)CC2)cc1 [Example 4, trans-2-[4-[4-(4-Chlorophenyl)-5-(pyrazol-1-ylmethyl)-1,2,4-triazol-3-yl]cyclohexyl]oxypyridine]
- Ki: 0.347 nM

Structure (SMILES): Clc1ccc(-n2c(Cn3nccn3)nnc2[C@H]2CC[C@H](Oc3ccccn3)CC2)cc1 [Example 5, trans-2-[4-[4-(4-Chlorophenyl)-5-(triazol-2-ylmethyl)-1,2,4-triazol-3-yl]cyclohexyl]oxypyridine]
- Ki: 0.151 nM

Structure (SMILES): Clc1ccc(-n2c(Cn3nccn3)nnc2[C@H]2CC[C@@H](Oc3ccccn3)CC2)cc1 [Example 6, cis-2-[4-[4-(4-Chlorophenyl)-5-(triazol-2-ylmethyl)-1,2,4-triazol-3-yl]cyclohexyl]oxypyridine]
- Ki: 0.871 nM

Structure (SMILES): Clc1ccc(-n2c(Cn3ccnn3)nnc2[C@H]2CC[C@H](Oc3ccccn3)CC2)cc1 [Example 7, trans-2-[4-[4-(4-Chlorophenyl)-5-(triazol-1-ylmethyl)-1,2,4-triazol-3-yl]cyclohexyl]oxypyridine]
- Ki: 3.63 nM

Structure (SMILES): Clc1ccc(-n2c(Cn3ccnc3)nnc2[C@H]2CC[C@H](Oc3ccccn3)CC2)cc1 [Example 8, trans-2-[4-[4-(4-Chlorophenyl)-5-(imidazol-1-ylmethyl)-1,2,4-triazol-3-yl]cyclohexyl]oxypyridine]
- Ki: 3.63 nM

Structure (SMILES): Clc1ccc(-n2c(Cn3cncn3)nnc2[C@H]2CC[C@H](Oc3ccccn3)CC2)cc1 [Example 9, trans-2-[4-[4-(4-Chlorophenyl)-5-(1,2,4-triazol-1-ylmethyl)-1,2,4-triazol-3-yl]cyclohexyl]oxypyridine]
- Ki: 7.94 nM

Structure (SMILES): Clc1ccc(-n2c(Cn3cnnn3)nnc2[C@H]2CC[C@H](Oc3ccccn3)CC2)cc1 [Example 10, trans-2-[4-[4-(4-Chlorophenyl)-5-(tetrazol-1-ylmethyl)-1,2,4-triazol-3-yl]cyclohexyl]oxypyridine]
- Ki: 9.12 nM
